Reference: patent US20060014730A1, “Ansamycin formulations and methods for producing and using same” (Conforma Therapeutics Corporation, priority 2002, published 2006)
Like-named read-outs stand apart in the source and are kept apart here.

Legend:
[1] = Drug concentration achieved in the emulsion; format: physicochemical
[2] = Dissolution of 17-AAG in Phospholipon in Miglyol solution without ethanol; format: physicochemical; conditions: lower melting point form crystallized from isopropanol rather than ethanol; room temperature
Excerpt: Alternatively, 17-AAG can be brought […], adding to this the drug, e.g., 17-AAG, and mixing, e.g., by stirring and/or sonication.

[3] = system: adult patients with advanced solid tumors; conditions: daily 1-hour infusion for 5 days every three weeks; cited from earlier work
[4] = cited from earlier work; for Cmax: human, in vivo
[5] = adult patients, daily 1-hour infusion for 5 days every three weeks

## C=CCNC1=C2C[C@@H](C)C[C@H](OC)[C@H](O)[C@@H](C)/C=C(\C)[C@H](OC(N)=O)[C@@H](OC)/C=C\C=C(/C)C(=O)NC(=CC1=O)C2=O [Compound 17-AAG, 17-allylamino-geldanamycin]
[1]; oil phase alone
  concentration achieved in the oil phase alone: 20000 to 30000 µg/mL
[1]; whole emulsion
  concentration achieved overall: ≤ 3000 µg/mL
[2]
  dissolution into the Phospholipon in Miglyol solution: more readily can be dissolved
[3]
  maximum tolerated dose (MTD): 40 mg/m^2
[4]; [5]
  clearance (mean+/-SD): 41.0 ± 13.5 L/h
  steady-state volume (mean+/-SD): 86.6+/−34.6 L/m^2
  terminal half-life (mean+/-SD): 2.5 ± 0.5 h
[4]; 40 mg/m2
  Cmax: 1860 nM
[4]; 56 mg/m2
  Cmax: 3170 nM
